Laboratory results from patent US20240287080A1 (IDEAYA Biosciences Inc., priority 2021, published 2024).

Molecular target: T1, Pol theta (1-899) (Homo sapiens, UniProt O75417)
T1 construct: Pol theta (1-899) (5 nM) in assay buffer
Assay: Pol theta ATPase activity, NADH oxidation-coupled enzymatic assay (ATPase NADH coupling: Standard Screening: hPolQ)
Type: biochemical
Settings: Pol theta (1-899) 5 nM
Protocol: The ability of the compounds of Formula (I) or Table 1 to inhibit ATPase activity of Pol theta (1-899) was determined using the assay described below. Pol Theta ATPase activity was determined by measuring the rate of ATP turn over in a NADH oxidation-coupled enzymatic assay. 10-point dilution series of compounds were used in a 384 well format for the inhibition assays. Pol theta (1-899) (5 nM) in assay buffer (20 mM Tris HCl (pH 7.80), 80 mM KCl, 10 mM MgCl2, 1 mM DTT, 0.01% BSA, 0.01% Tween, 5% glycerol) was transferred to the test wells (20 μL), except the low control wells (20 μL of assay buffer was added to the low control wells). The plate was then incubated at room temperature for 15 min. An equal volume (20 μL) of 100 μM ATP, 300 nM […] (single-stranded DNA (ssDNA) containing 50 thymine bases), 300 μM NADH, 6 mM PEP, 10 U/mL lactate dehydrogenase and 20 U/mL pyruvate kinase in assay buffer was added to all the test wells. The plate was then centrifuged at 1000 rpm for 1 min. The reaction was monitored for 60 min by measuring absorbance (λ=340 nm) in a Tecan Spark multimode plate reader every minute. The high control (DMSO with enzyme) with low absorbance intensity represents no inhibition of ATPase reaction while the low control (DMSO with buffer) with high absorbance intensity represents full inhibition of ATPase activity. Slope of the reaction progress curves were used to calculate the rate of ATP hydrolysis. The rates were used to determine the percent inhibition using a four-parameter inhibition model to generate IC50, Hill slope and max inhibition.

[1] = NADH oxidation-coupled ATPase assay, compounds of Table 3

T1 sequence (O75417 1-899): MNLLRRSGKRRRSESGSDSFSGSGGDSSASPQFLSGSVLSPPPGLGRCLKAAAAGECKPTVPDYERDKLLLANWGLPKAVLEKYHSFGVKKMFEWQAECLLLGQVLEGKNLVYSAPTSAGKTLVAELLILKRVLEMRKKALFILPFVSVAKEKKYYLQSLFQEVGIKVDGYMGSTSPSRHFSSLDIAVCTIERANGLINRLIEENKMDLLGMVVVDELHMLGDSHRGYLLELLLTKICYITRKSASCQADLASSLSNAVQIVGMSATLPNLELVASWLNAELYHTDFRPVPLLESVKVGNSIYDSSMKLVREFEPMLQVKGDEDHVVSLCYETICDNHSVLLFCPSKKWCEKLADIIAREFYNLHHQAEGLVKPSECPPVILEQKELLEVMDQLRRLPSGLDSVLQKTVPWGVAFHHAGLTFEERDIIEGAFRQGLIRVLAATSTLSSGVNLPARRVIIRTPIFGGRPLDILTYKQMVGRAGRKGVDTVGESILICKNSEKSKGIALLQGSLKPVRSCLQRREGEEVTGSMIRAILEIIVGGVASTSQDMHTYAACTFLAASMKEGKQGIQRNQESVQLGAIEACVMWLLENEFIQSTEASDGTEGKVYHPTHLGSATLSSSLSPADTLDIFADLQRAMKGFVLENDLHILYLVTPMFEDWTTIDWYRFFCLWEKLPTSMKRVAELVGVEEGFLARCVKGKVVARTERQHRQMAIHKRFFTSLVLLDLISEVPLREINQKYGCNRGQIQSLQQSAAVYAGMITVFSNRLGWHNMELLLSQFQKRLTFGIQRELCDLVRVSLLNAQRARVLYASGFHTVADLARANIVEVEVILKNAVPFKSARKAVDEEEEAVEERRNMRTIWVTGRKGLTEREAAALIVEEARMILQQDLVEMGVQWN

Row | IC50 (Table 5, ATP, dT50 ssDNA) [nM] | IC50 [1] [nM] | Compound | further results
1 | ≤ 200 | – | COc1cnc(Cl)cc1-c1cc(C)ncc1C(=O)Nc1nnc(O[C@H]2CCC23COC3)s1 (single isomer, unassigned) [Example 136] | –
2 | – | – | COc1nnc(NC(=O)c2cn(-c3cc(Cl)ncc3OC)nn2)s1 [Example 234, 1-(2-chloro-5-methoxypyridin-4-yl)-N-(5-methoxy-1,3,4-thiadiazol-2-yl)-1H-1,2,3-triazole-4-carboxamide] | IC50 (Table 5, values given as bound, ATP, dT50 ssDNA): > 10000 nM
3 | ≤ 200 | – | COc1cnc(Br)cc1-c1cc(C)ncc1C(=O)Nc1nnc(O[C@H]2CC[C@](C)(O)CC2)s1 (single isomer, unassigned) [Example 225, 2′-bromo-N-(5-(((1r,4r)-4-hydroxy-4-methylcyclohexyl)oxy)-1,3,4-thiadiazol-2-yl)-5′-methoxy-6-methyl-(4,4′-bipyridine)-3-carboxamide] | –
4 | ≤ 200 | – | COc1cnc(Cl)c(F)c1-c1cc(C)ncc1C(=O)Nc1nnc(O[C@H]2CC[C@H](O)C2)s1 (single isomer, unassigned) [Example 197] | –
5 | 200 to 500 | – | COc1nnc(NC(=O)c2cnc(C)cc2-c2cc3cn[nH]c3cc2OC)s1 [Example 104, N-(5-methoxy-1,3,4-thiadiazol-2-yl)-4-(6-methoxy-1H-indazol-5-yl)-6-methylnicotinamide] | –
6 | – | 1000 to 10000 | COc1nnc(NC(=O)c2cnc(C)cc2-c2ccc(C(=O)O)c(F)c2)s1 [Example 465, 2-fluoro-4-(5-((5-methoxy-1,3,4-thiadiazol-2-yl)carbamoyl)-2-methylpyridin-4-yl)benzoic acid] | –
7 | – | – | COc1nnc(NC(=O)c2cnc(C)cc2-c2ccnc(Cl)c2)s1 [Example 75, 2′-chloro-N-(5-methoxy-1,3,4-thiadiazol-2-yl)-6-methyl-(4,4′-bipyridine)-3-carboxamide] | IC50 (Table 4, ATP, dT50 ssDNA): ≤ 200 nM
8 | ≤ 200 | – | COc1cnc(Cl)cc1-c1cc(C)ncc1C(=O)Nc1nnc(O[C@H]2CC[C@@H]([C@H](C)O)CC2)s1 (single isomer, unassigned) [Example 213] | –
9 | – | 1000 to 10000 | COc1nnc(NC(=O)c2cnc(C)cc2-c2ccc(S(C)(=O)=O)cc2)s1 [Example 371, N-(5-methoxy-1,3,4-thiadiazol-2-yl)-6-methyl-4-(4-(methylsulfonyl)phenyl)nicotinamide] | –
10 | – | ≤ 200 | COc1cnc(C)cc1-c1cc(C)ncc1C(=O)Nc1nnc(O[C@H]2COC[C@@H]2OC(C)C)s1 [Example 246] | –
11 | – | – | COc1cnc(Cl)cc1-c1cc(C)ncc1C(=O)Nc1nnc(OC2CCC2)s1 [Example 11, 2′-chloro-N-(5-cyclobutoxy-1,3,4-thiadiazol-2-yl)-5′-methoxy-6-methyl-(4,4′-bipyridine)-3-carboxamide] | IC50 (Table 4, ATP, dT50 ssDNA): ≤ 200 nM
12 | – | ≤ 200 | COc1nnc(NC(=O)c2cnc(C)cc2-c2cccc(C(F)(F)F)c2)s1 [Example 359, N-(5-methoxy-1,3,4-thiadiazol-2-yl)-6-methyl-4-[3-(trifluoromethyl)phenyl]pyridine-3-carboxamide] | –
13 | – | 1000 to 10000 | COc1nnc(NC(=O)c2cnc(C)cc2-c2ccncc2C)s1 [Example 406, N-(5-methoxy-1,3,4-thiadiazol-2-yl)-3′,6-dimethyl-[4,4′-bipyridine]-3-carboxamide] | –
14 | ≤ 200 | – | COc1cnc(Cl)c(F)c1-c1cc(C)ncc1C(=O)Nc1nnc(O[C@H]2CC[C@H](O)CC2)s1 [Example 211, 2′-chloro-3′-fluoro-N-(5-(((1r,4r)-4-hydroxycyclohexyl)oxy)-1,3,4-thiadiazol-2-yl)-5′-methoxy-6-methyl-(4,4′-bipyridine)-3-carboxamide] | –
15 | 200 to 500 | – | COc1nnc(NC(=O)c2cnc(C)cc2-c2c(OC)cnc(Cl)c2C)s1 [Example 79, 2′-chloro-5′-methoxy-N-(5-methoxy-1,3,4-thiadiazol-2-yl)-3′,6-dimethyl-(4,4′-bipyridine)-3-carboxamide] | –
16 | – | – | COc1nnc(NC(=O)c2cnc(C)cc2-c2c(F)cccc2OC)s1 [Example 2, 4-(2-fluoro-6-methoxyphenyl)-N-(5-methoxy-1,3,4-thiadiazol-2-yl)-6-methylpyridine-3-carboxamide] | IC50 (Table 4, ATP, dT50 ssDNA): ≤ 200 nM

Row | IC50 (Table 5, ATP, dT50 ssDNA) [nM] | IC50 [1] [nM] | Compound | further results
17 | – | 500 to 1000 | COc1nnc(NC(=O)c2cnc(C)cc2-c2cccc(OC(F)(F)F)c2)s1 [Example 408, N-(5-methoxy-1,3,4-thiadiazol-2-yl)-6-methyl-4-[3-(trifluoromethoxy)phenyl]pyridine-3-carboxamide] | –
18 | – | 1000 to 10000 | COc1nnc(NC(=O)c2cnc(C)cc2-c2ccoc2)s1 [Example 390, 4-(furan-3-yl)-N-(5-methoxy-1,3,4-thiadiazol-2-yl)-6-methylpyridine-3-carboxamide] | –
19 | – | 1000 to 10000 | COc1nnc(NC(=O)c2cnc(C)cc2-c2cnnc(C)c2)s1 [Example 440, N-(5-methoxy-1,3,4-thiadiazol-2-yl)-6-methyl-4-(6-methylpyridazin-4-yl)nicotinamide] | –
20 | ≤ 200 | – | COc1cnc(Cl)cc1-c1cc(C)ncc1C(=O)Nc1nnc(O[C@H]2CC[C@H]([C@H](C)O)CC2)s1 (single isomer, unassigned) [Example 200] | –
21 | – | – | COc1nnc(NC(=O)c2cnc(C)cc2-c2cc(C(F)(F)F)ncc2OC)s1 [Example 57, 5′-methoxy-N-(5-methoxy-1,3,4-thiadiazol-2-yl)-6-methyl-2′-(trifluoromethyl)-(4,4′-bipyridine)-3-carboxamide] | IC50 (Table 4, ATP, dT50 ssDNA): ≤ 200 nM
22 | – | ≤ 200 | COc1cnc(Cl)cc1-c1cc(C)ncc1C(=O)Nc1nnc(OC2CCC23CCOC3)s1 (stereo not drawn) [Example 296, N-(5-((6-oxaspiro[3.4]octan-1-yl)oxy)-1,3,4-thiadiazol-2-yl)-2′-chloro-5′-methoxy-6-methyl-[4,4′-bipyridine]-3-carboxamide] | –
23 | ≤ 200 | – | COc1cnc(Cl)cc1-c1cc(C)ncc1C(=O)Nc1nnc(O[C@@H]2COC3(CC3)C2)s1 (single isomer, unassigned) [Example 228] | –
24 | ≤ 200 | – | COc1cnc(Cl)cc1-c1cc(C)ncc1C(=O)Nc1nnc(O[C@H]2CCO[C@@H]2C)s1 (single isomer, unassigned) [Example 115] | –
25 | ≤ 200 | – | COc1cnc(Cl)cc1-c1cc(C)ncc1C(=O)Nc1nnc(O[C@H]2CCC[C@](C)(O)C2)s1 (racemic) [Example 178, rac-2′-chloro-N-(5-(((1R,3R)-3-hydroxy-3-methylcyclohexyl)oxy)-1,3,4-thiadiazol-2-yl)-5′-methoxy-6-methyl-(4,4′-bipyridine)-3-carboxamide] | –
26 | – | – | COc1cnc(Cl)cc1-c1cc(C)ncc1C(=O)Nc1nnc(O[C@H]2CCO[C@@H]2C)s1 (single isomer, unassigned) [Example 77, 2′-chloro-5′-methoxy-6-methyl-N-(5-(((2r,3s)-2-methyltetrahydrofuran-3-yl)oxy)-1,3,4-thiadiazol-2-yl)-(4,4′-bipyridine)-3-carboxamide] | IC50 (Table 4, ATP, dT50 ssDNA): ≤ 200 nM
27 | – | 1000 to 10000 | COc1nnc(NC(=O)c2cnc(C)cc2-c2ccc3c(c2)CC(=O)N3)s1 [Example 347, N-(5-methoxy-1,3,4-thiadiazol-2-yl)-6-methyl-4-(2-oxo-2,3-dihydro-1H-indol-5-yl)pyridine-3-carboxamide] | –
28 | – | – | COc1cnc(Cl)cc1-c1cc(C)ncc1C(=O)Nc1nnc(OCC(C)(C)C#N)s1 [Example 10, 2′-chloro-N-(5-(2-cyano-2-methylpropoxy)-1,3,4-thiadiazol-2-yl)-5′-methoxy-6-methyl-(4,4′-bipyridine)-3-carboxamide] | IC50 (Table 4, ATP, dT50 ssDNA): ≤ 200 nM
29 | – | ≤ 200 | COc1cnc(Cl)cc1-c1cc(C)ncc1C(=O)Nc1nnc(O[C@H]2CO[C@H]3[C@@H]2OC[C@H]3O[N+](=O)[O-])s1 [Example 238, (3R,3aS,6S,6aR)-6-((5-(2′-chloro-5′-methoxy-6-methyl-[4,4′-bipyridine]-3-carboxamido)-1,3,4-thiadiazol-2-yl)oxy)hexahydrofuro[3,2-b]furan-3-yl nitrate] | –
30 | ≤ 200 | – | Cc1cc(-c2cc(Cl)ncc2OC(F)F)c(C(=O)Nc2nnc(O[C@@H]3CCOC3)s2)cn1 [Example 82, (R)-2′-chloro-5′-(difluoromethoxy)-6-methyl-N-(5-((tetrahydrofuran-3-yl)oxy)-1,3,4-thiadiazol-2-yl)-(4,4′-bipyridine)-3-carboxamide] | –
31 | ≤ 200 | – | Cc1cc(-c2cc(Cl)ncc2OC(F)F)c(C(=O)Nc2nnc(O[C@H]3COC4(CC4)C3)s2)cn1 (single isomer, unassigned) [Example 233] | –
32 | – | 1000 to 10000 | COc1nnc(NC(=O)c2cnc(C)cc2-c2ccc(F)c(F)c2)s1 [Example 354, 4-(3,4-difluorophenyl)-N-(5-methoxy-1,3,4-thiadiazol-2-yl)-6-methylpyridine-3-carboxamide] | –

Row | Compound | IC50 (Table 5, ATP, dT50 ssDNA) [nM] | IC50 [1] [nM] | further results
33 | COc1cnc(Cl)c(F)c1-c1cc(C)ncc1C(=O)Nc1nnc(O[C@H]2C[C@@H](O)C2)s1 [Example 129, 2′-chloro-3′-fluoro-N-(5-((1s,3s)-3-hydroxycyclobutoxy)-1,3,4-thiadiazol-2-yl)-5′-methoxy-6-methyl-(4,4′-bipyridine)-3-carboxamide] | ≤ 200 | – | –
